Experimental data reported in patent publication EP4291552B1, “MODULATORS OF COMPLEX I” (Boehringer Ingelheim International GmbH, priority 2021, dated 2022).

test system: mice neuroblastoma cells (HT-22); assay: Determination of Cellular Protection (HT22); details: Mus musculus, HT-22, 16 h, read-out: HT22 IC50

Structure (SMILES)	IC50
CN(C)c1ccc2c(c1)/C(=C1\CCCN1)C(=O)N2C [Compound 1]	282 nM
CN(C)c1ccc2c(c1)/C(=C1\COCCN1)C(=O)N2C [Compound 2]	1050 nM
CC(C)Nc1ccc2c(c1)/C(=C1\COCCN1)C(=O)N2C1CCOCC1 [Compound 3]	71 nM
O=C1/C(=C2/COCCN2)c2cc(N3CCOCC3)ccc2N1C1CCOCC1 [Compound 4]	3140 nM
CC(C)Nc1ccc2c(c1)/C(=C1\CN(C3COC3)CCN1)C(=O)N2C1CCOCC1 [Compound 5]	220 nM
CC(C)Nc1ccc2c(c1)C(=C1CCOCC1)C(=O)N2C1CCOCC1 [Compound 6]	207 nM
CC(C)N1C(=O)C(=C2CCOCC2)c2cc(N3CCCC3)ccc21 [Compound 7]	256 nM
CC(C)Nc1ccc2c(c1)/C(=C1\CN(C(C)C)CCN1)C(=O)N2C1CCN(C(C)C)CC1 [Compound 8]	41 nM
CN1CCC/C1=C1/C(=O)N(C2CCOCC2)c2ccc(NC3CCC3)cc21 [Compound 9]	38 nM
CCOC(=O)N1CCC(N2C(=O)/C(=C3/COCCN3)c3cc(NC(C)C)ccc32)CC1 [Compound 10]	31 nM
CC(=O)N1CCN/C(=C2\C(=O)N(C3CCOCC3)c3ccc(N4CCCC4)cc32)CC1 [Compound 12]	191 nM
O=C1/C(=C2/CCOCCN2)c2cc(NC3CCCC3)ccc2N1C1CCOCC1 [Compound 13]	14 nM
O=C1/C(=C2/COCCN2)c2cc(NC3CCC3)ccc2N1C1CCOC1 (stereo not drawn) [Compound 14]	20 nM
CC(Nc1ccc2c(c1)/C(=C1\COCCN1)C(=O)N2C(C)C)c1cccnc1 (stereo not drawn) [Compound 15]	115 nM
COC1COCCC1Nc1ccc2c(c1)/C(=C1\COCCN1)C(=O)N2C(C)C (stereo not drawn) [Compound 16]	693 nM
CC(Nc1ccc2c(c1)/C(=C1\COCCN1)C(=O)N2C(C)C)c1ccnn1C (stereo not drawn) [Compound 17]	159 nM
O=C1/C(=C2/COCCN2)c2cc(NC3CCOCC3)ccc2N1C1CCOCC1 [Compound 18]	409 nM
CC(C)N1CCC(Nc2ccc3c(c2)/C(=C2\COCCN2)C(=O)N3C2CCOCC2)CC1 [Compound 19]	168 nM
CC(Nc1ccc2c(c1)/C(=C1\COCCN1)C(=O)N2C1CCOCC1)C1CC1 (stereo not drawn) [Compound 20]	34 nM
O=C1/C(=C2/COCCN2)c2cc(NCc3cc[nH]n3)ccc2N1C1CCOCC1 [Compound 21]	253 nM
CC(C)N1C(=O)/C(=C2/CCOCCN2)c2cc(NC3CCC3)ccc21 [Compound 22]	11 nM
CC(C)N1CCN/C(=C2\C(=O)N(C)c3ccc(N4CCCC4)cc32)C1 [Compound 23]	173 nM

Structure (SMILES)	IC50
CC(C)N1C(=O)C(=C2CCOCC2)c2cc(NC3CCC3)ccc21 [Compound 25]	96 nM
CC(C)Nc1ccc2c(c1)/C(=C1\COCCN1)C(=O)N2C1COCCOC1 [Compound 26]	59 nM
CC(C)C(C)Nc1ccc2c(c1)/C(=C1\COCCN1)C(=O)N2C1COCCOC1 (stereo not drawn) [Compound 27]	15 nM
COCC(C)N1C(=O)/C(=C2/COCCN2)c2cc(NC(C)C)ccc21 (stereo not drawn) [Compound 28]	118 nM
CC1CCC(C)N1c1ccc2c(c1)/C(=C1\CCOCCN1)C(=O)N2C1CCOCC1 (stereo not drawn) [Compound 29]	142 nM
CC(C)Nc1ccc2c(c1)/C(=C1\COCCN1)C(=O)N2[C@H]1CCN(C(C)C)C1 [Compound 31]	41 nM
O=C1/C(=C2/COCCN2)c2cc(NC3CCOCC3)ccc2N1C1CCOC1 (stereo not drawn) [Compound 32]	205 nM
CC(C)Nc1ccc2c(c1)/C(=C1\COCC(C)N1)C(=O)N2C1CCOCC1 (stereo not drawn) [Compound 33]	37 nM
CC(=O)N1CCC2(CC1)CN/C(=C1\C(=O)N(C(C)C)c3ccc(NC(C)C)cc31)CO2 [Compound 34]	49 nM
Nc1ccc2c(c1)/C(=C1\COCCN1)C(=O)N2C1CCOCC1 [Compound 35]	2720 nM
CC(C)N1C(=O)/C(=C2/COCCN2)c2cc(NC3CCOCC3)ccc21 [Compound 36]	56 nM
CC(Nc1ccc2c(c1)/C(=C1\COCCN1)C(=O)N2C(C)C)C1CCC1 (stereo not drawn) [Compound 37]	3 nM
CC(C)N1C(=O)/C(=C2/COCCN2)c2cc(NC3CCN(C)CC3)ccc21 [Compound 38]	38 nM
CC(C)N1C(=O)/C(=C2/COCCN2)c2cc(NCC3CCOC3)ccc21 (stereo not drawn) [Compound 39]	102 nM
CN1C(=O)/C(=C2/CCNCCN2)c2cc(N3CCCC3)ccc21 [Compound 40]	13 nM
CN(C)c1ccc2c(c1)/C(=C1\CCOCCN1)C(=O)N2C [Compound 41]	983 nM
CN(C)c1ccc2c(c1)/C(=C1\CCCN1)C(=O)N2C1CCOCC1 [Compound 42]	951 nM
CNc1ccc2c(c1)/C(=C1\CCCN1)C(=O)N2C1CCOCC1 [Compound 43]	124 nM
CC(C)Nc1ccc2c(c1)/C(=C1\COCCN1)C(=O)N2C(C)C [Compound 44]	30 nM
CN1C(=O)/C(=C2/CCN(C3COC3)CCN2)c2cc(N3CCCC3)ccc21 [Compound 45]	261 nM
CC(C)Nc1ccc2c(c1)/C(=C1\CN(C(C)C)CCN1)C(=O)N2C1CCOCC1 [Compound 46]	48 nM
CC(C)Nc1ccc2c(c1)C(=C1CCOCC1)C(=O)N2C(C)C [Compound 47]	85 nM

Structure (SMILES)	IC50
CC(C)Nc1ccc2c(c1)/C(=C1\CCCN1C)C(=O)N2C1CCOCC1 [Compound 48]	353 nM
CN1CCC/C1=C1/C(=O)N(C2CCOCC2)c2ccc(NC3CCOC3)cc21 (stereo not drawn) [Compound 49]	1250 nM
O=C1/C(=C2/COCCN2)c2cc(NC3CCCC3)ccc2N1C1COCCOC1 [Compound 50]	13 nM
O=C1/C(=C2/COCCN2)c2cc(NC3CCC3)ccc2N1C1COC1 [Compound 51]	33 nM
COCC(C)Nc1ccc2c(c1)/C(=C1\COCCN1)C(=O)N2C1CCOC1 (stereo not drawn) [Compound 52]	198 nM
CC(=O)N1CCC2(CC1)CN/C(=C1\C(=O)N(C(C)C)c3ccc(N4CCCC4)cc31)CO2 [Compound 53]	55 nM
CCC(C)Nc1ccc2c(c1)/C(=C1\COCCN1)C(=O)N2C(C)C (stereo not drawn) [Compound 54]	24 nM
CC(C)N1C(=O)/C(=C2/COCCN2)c2cc(NC(C)C(C)(C)C)ccc21 (stereo not drawn) [Compound 55]	38 nM
CC(Nc1ccc2c(c1)/C(=C1\COCCN1)C(=O)N2C(C)C)C1CCCC1 (stereo not drawn) [Compound 56]	2 nM
CC(Nc1ccc2c(c1)/C(=C1\COCCN1)C(=O)N2C(C)C)c1cnccn1 (stereo not drawn) [Compound 57]	199 nM
CC(C)N1C(=O)/C(=C2/COCCN2)c2cc(NCC3CC3)ccc21 [Compound 58]	19 nM
CCC(C)Nc1ccc2c(c1)/C(=C1\COCCN1)C(=O)N2C1CCOCC1 (stereo not drawn) [Compound 59]	22 nM
O=C1/C(=C2/COCCN2)c2cc(NC3CCCC3)ccc2N1C1CCOCC1 [Compound 60]	10 nM
CC(Nc1ccc2c(c1)/C(=C1\COCCN1)C(=O)N2C1CCOCC1)C1CCCC1 (stereo not drawn) [Compound 61]	12 nM
CN(C)c1ccc2c(c1)/C(=C1\CCCCN1)C(=O)N2C [Compound 62]	162 nM
CC(C)Nc1ccc2c(c1)/C(=C1\COCCN1)C(=O)N2C [Compound 63]	134 nM
CN1CCN/C(=C2\C(=O)N(C)c3ccc(N4CCCC4)cc32)CC1 [Compound 64]	65 nM
O=C1/C(=C2/COCCN2)c2cc(NC3CCCC3)ccc2N1C1COC1 [Compound 65]	18 nM
CC(C)C(C)Nc1ccc2c(c1)/C(=C1\COCCN1)C(=O)N2C1COC1 (stereo not drawn) [Compound 66]	19 nM
CC(Nc1ccc2c(c1)/C(=C1\COCCN1)C(=O)N2C1COC1)C1CC1 (stereo not drawn) [Compound 67]	37 nM
COCC(C)N1C(=O)/C(=C2/COCCN2)c2cc(N3CCCC3)ccc21 (stereo not drawn) [Compound 68]	134 nM
CC(C)Nc1ccc2c(c1)/C(=C1\COCCN1)C(=O)N2[C@H]1CCN(C2COC2)C1 [Compound 69]	141 nM

Structure (SMILES)	IC50
O=C1/C(=C2/CC3(CN2)COC3)c2cc(NC3CCOC3)ccc2N1C1CCOCC1 (stereo not drawn) [Compound 70]	1150 nM
CC(Nc1ccc2c(c1)/C(=C1\COCCN1)C(=O)N2C(C)C)c1ccccn1 (stereo not drawn) [Compound 71]	131 nM
CC(C)N1C(=O)/C(=C2/COCCN2)c2cc(NC3CCC(F)(F)CC3)ccc21 [Compound 72]	6 nM
CC(C)N1C(=O)/C(=C2/COCCN2)c2cc(NC3CCOCC3F)ccc21 (stereo not drawn) [Compound 73]	264 nM
CC(C)N1C(=O)/C(=C2/COCCN2)c2cc(NCc3cc[nH]n3)ccc21 [Compound 74]	144 nM
CC(C)N1C(=O)/C(=C2/COCCN2)c2cc(NCC3CCOCC3)ccc21 [Compound 75]	73 nM
CCC(CC)Nc1ccc2c(c1)/C(=C1\COCCN1)C(=O)N2C1CCOCC1 [Compound 76]	24 nM
CC(Nc1ccc2c(c1)/C(=C1\COCCN1)C(=O)N2C1CCOCC1)c1ccccn1 (stereo not drawn) [Compound 77]	48 nM
O=C1/C(=C2/COCCN2)c2cc(NC3CCC(F)(F)CC3)ccc2N1C1CCOCC1 [Compound 78]	37 nM
CC(Nc1ccc2c(c1)/C(=C1\COCCN1)C(=O)N2C1CCOCC1)c1ccnn1C (stereo not drawn) [Compound 79]	221 nM
O=C1/C(=C2/COCCN2)c2cc(NC3CCOCC3F)ccc2N1C1CCOCC1 (stereo not drawn) [Compound 80]	345 nM
O=C1/C(=C2/COCCN2)c2cc(NCC3CCOCC3)ccc2N1C1CCOCC1 [Compound 81]	233 nM
CC(C)Nc1ccc2c(c1)/C(=C1\CCOCCN1)C(=O)N2C(C)C [Compound 82]	26 nM
Nc1ccc2c(c1)/C(=C1\CCCN1)C(=O)N2C1CCOCC1 [Compound 83]	2080 nM
CC1CCC(C)N1c1ccc2c(c1)/C(=C1\COCCN1)C(=O)N2C (stereo not drawn) [Compound 84]	141 nM
CC1CCN(c2ccc3c(c2)/C(=C2\COCCN2)C(=O)N3C2CCOCC2)CC1 [Compound 85]	264 nM
O=C1/C(=C2/COCCN2)c2cc(N3CCCCC3)ccc2N1C1CCOCC1 [Compound 86]	1110 nM
CC(C)Nc1ccc2c(c1)/C(=C1\CN(C(C)C)CCN1)C(=O)N2C(C)C [Compound 88]	10 nM
CCOC(=O)N1CCC(N2C(=O)/C(=C3/COCCN3)c3cc(N(C)C)ccc32)CC1 [Compound 89]	493 nM
CC(C)Nc1ccc2c(c1)/C(=C1\COCCN1)C(=O)N2C(C)(C)C [Compound 90]	32 nM
CC(C)N1CCC2(CC1)CN/C(=C1\C(=O)N(C(C)C)c3ccc(N4CCCC4)cc31)CO2 [Compound 91]	9 nM
